Source: US20110040086A1, “Novel Beta-Lactam Antibiotics, Methods for Their Production, and Their Use” (DRITTE PATENTPORTFOLIO BETEILIGUNGSGESELLSCHAFT MB, priority 2007, published 2011)

Columns and labels:
[1] = test system: Enterococcus faecalis 769; test: agar diffusion test (Test System II, multi-resistant germs); assay type: cell-based; set-up: key: r = resistant (no detectable zone of inhibition)
In short: (§1)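 Read-out is the diameter of the growth-free zone around each disc after plates incubate 18-20 hours at 37 °C. Discs hold 10, 50 or 100 μg of substance applied from methanol or aqueous solution, on agar seeded with bacteria adjusted to McFarland 0.5.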

[2] = test system: Staphylococcus aureus 315; test: as above; assay type: cell-based; set-up: key: r = resistant (no detectable zone of inhibition)
In short: as §1

E. faecalis 945 = test: as above; assay type: cell-based, Enterococcus faecalis; set-up: key: r = resistant (no detectable zone of inhibition)
In short: as §1

S. aureus 33490 = test: as above; assay type: cell-based, Staphylococcus aureus; set-up: key: r = resistant (no detectable zone of inhibition)
In short: as §1

S. aureus 34289 = test: as above; assay type: cell-based, Staphylococcus aureus; set-up: key: r = resistant (no detectable zone of inhibition)
In short: as §1

S. aureus 36881 = test: as above; assay type: cell-based, Staphylococcus aureus; set-up: key: r = resistant (no detectable zone of inhibition)
In short: as §1

S. aureus 39105 = test: as above; assay type: cell-based, Staphylococcus aureus; set-up: key: r = resistant (no detectable zone of inhibition)
In short: as §1

S. aureus 520 = test: as above; assay type: cell-based, Staphylococcus aureus; set-up: key: r = resistant (no detectable zone of inhibition)
In short: as §1

S. aureus 526 = test: as above; assay type: cell-based, Staphylococcus aureus; set-up: key: r = resistant (no detectable zone of inhibition)
In short: as §1

[3] = test system: S. aureus North Germany strain; test: as above; assay type: cell-based, Staphylococcus aureus; set-up: key: r = resistant (no detectable zone of inhibition)
In short: as §1

S. aureus 38418 = test: as above; assay type: cell-based, Staphylococcus aureus
In short: as §1

S. aureus ATCC 6538 = test: as above; assay type: cell-based, Staphylococcus aureus
In short: as §1

S. epidermidis 1068 = test: as above; assay type: cell-based, Staphylococcus epidermidis; set-up: key: r = resistant (no detectable zone of inhibition)
In short: as §1

S. epidermidis 1071 = test: as above; assay type: cell-based, Staphylococcus epidermidis; set-up: key: r = resistant (no detectable zone of inhibition)
In short: as §1

S. epidermidis 563 = test: as above; assay type: cell-based, Staphylococcus epidermidis; set-up: key: r = resistant (no detectable zone of inhibition)
In short: as §1

S. epidermidis 847 = test: as above; assay type: cell-based, Staphylococcus epidermidis; set-up: key: r = resistant (no detectable zone of inhibition)
In short: as §1

S. epidermidis 125 = test: as above; assay type: cell-based, Staphylococcus epidermidis; set-up: key to Diameter of zone of inhibition: r = resistant (no detectable zone of inhibition)
In short: as §1

[4] = test system: Staphylococcus aureus ATCC 6538; test: mouse infected with Staphylococcus aureus infection model (survival); assay type: in vivo, BALB/c mice; conditions: 2 × 0.5 mg (25 mg/kg) i.p.
In short: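 Survival model: S. aureus grown to extinction 0.6 at 550 nm and injected i.p. (10 μl/g body weight) into cyclophosphamide-pretreated BALB/c mice (250 then 100 mg/kg i.p.), ≥3 animals per arm. Test antibiotic dosed i.p. at 30 min and again later at the same concentration, vehicle PBS/3% DMSO.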

7-{2-[2-(2-hydroxyethylcarbamoyl)-3,6-dioxocyclohexa-1,4-dienylamino]-2-phenyl-acetylamino}-desacetoxycephalosporanic acid [1e]
24 mm: Diameter of zone of inhibition (S. epidermidis 563; Quantity n 0.29) | Diameter of zone of inhibition (S. epidermidis 125; Quantity n 0.14)
14 mm: Diameter of zone of inhibition (S. aureus 36881; Quantity n 0.29) | Diameter of zone of inhibition (S. aureus 39105; Quantity n 0.29) | Diameter of zone of inhibition (S. aureus 38418; Quantity n [mol] 0.029) | Diameter of zone of inhibition (S. epidermidis 1068; Quantity n 0.14)
16 mm: Diameter of zone of inhibition (S. aureus 33490; Quantity n [μmol] 0.14) | Diameter of zone of inhibition ([3]; Quantity n 0.29) | Diameter of zone of inhibition (S. epidermidis 1068; Quantity n 0.29) | Diameter of zone of inhibition (S. epidermidis 847; Quantity n [mol] 0.14)
r: Diameter of zone of inhibition ([1]; Quantity n 0.029) | Diameter of zone of inhibition ([1]; Quantity n 0.14) | Diameter of zone of inhibition ([1]; Quantity n 0.29) | Diameter of zone of inhibition ([2]; Quantity n 0.029) | Diameter of zone of inhibition ([2]; Quantity n 0.14) | Diameter of zone of inhibition (E. faecalis 945; Quantity n 0.029) | Diameter of zone of inhibition (E. faecalis 945; Quantity n 0.14) | Diameter of zone of inhibition (E. faecalis 945; Quantity n 0.29) | Diameter of zone of inhibition (S. aureus 34289; Quantity n [mol] 0.029) | Diameter of zone of inhibition (S. aureus 34289; Quantity n [mol] 0.14) | Diameter of zone of inhibition (S. aureus 34289; Quantity n [mol] 0.29) | Diameter of zone of inhibition (S. aureus 36881; Quantity n 0.029) | Diameter of zone of inhibition (S. aureus 36881; Quantity n 0.14) | Diameter of zone of inhibition (S. aureus 39105; Quantity n 0.029) | Diameter of zone of inhibition (S. aureus 39105; Quantity n 0.14) | Diameter of zone of inhibition (S. aureus 520; Quantity n [mol] 0.029) | Diameter of zone of inhibition (S. aureus 520; Quantity n [mol] 0.14) | Diameter of zone of inhibition (S. aureus 520; Quantity n [mol] 0.29) | Diameter of zone of inhibition (S. aureus 526; Quantity n 0.029) | Diameter of zone of inhibition (S. aureus 526; Quantity n 0.14) | Diameter of zone of inhibition (S. aureus 526; Quantity n 0.29) | Diameter of zone of inhibition ([3]; Quantity n 0.029) | Diameter of zone of inhibition (S. epidermidis 1068; Quantity n 0.029) | Diameter of zone of inhibition (S. epidermidis 563; Quantity n 0.029) | Diameter of zone of inhibition (S. epidermidis 847; Quantity n [mol] 0.029) | Diameter of zone of inhibition (S. epidermidis 125; Quantity n 0.029)
28 mm: Diameter of zone of inhibition (S. epidermidis 125; Quantity n 0.29)
12 mm: Diameter of zone of inhibition ([2]; Quantity n 0.29)
30 mm: Diameter of zone of inhibition (S. aureus 38418; Quantity n [mol] 0.29) | Diameter of zone of inhibition (S. aureus ATCC 6538; Quantity n 0.14)
18 mm: Diameter of zone of inhibition (S. epidermidis 1071; Quantity n 0.14) | Diameter of zone of inhibition (S. epidermidis 563; Quantity n 0.14)
32 mm: Diameter of zone of inhibition (S. aureus ATCC 6538; Quantity n 0.29)
10 mm: Diameter of zone of inhibition ([3]; Quantity n 0.14) | Diameter of zone of inhibition (S. epidermidis 1071; Quantity n 0.029)
3/3: Survival/tested mice n/n [4]
8 mm: Diameter of zone of inhibition (S. aureus 33490; Quantity n [μmol] 0.029)
20 mm: Diameter of zone of inhibition (S. aureus 33490; Quantity n [μmol] 0.29) | Diameter of zone of inhibition (S. aureus ATCC 6538; Quantity n 0.029) | Diameter of zone of inhibition (S. epidermidis 1071; Quantity n 0.29) | Diameter of zone of inhibition (S. epidermidis 847; Quantity n [mol] 0.29)
26 mm: Diameter of zone of inhibition (S. aureus 38418; Quantity n [mol] 0.14)

CC1=C(C(=O)O)N2C(=O)C(NC(=O)C(NC3=C(C(N)=O)C(=O)C=CC3=O)c3ccccc3)C2SC1 (centres unmarked) [1f, 7-[2-(2-carbamoyl-3,6-dioxocyclohexa-1,4-dienylamino)-2-phenyl-acetylamino]-desacetoxycephalosporanic acid]
20 mm: Diameter of zone of inhibition (S. aureus ATCC 6538; Quantity n 0.02) | Diameter of zone of inhibition (S. epidermidis 847; Quantity n [mol] 0.2)
34 mm: Diameter of zone of inhibition (S. aureus ATCC 6538; Quantity n 0.2)
16 mm: Diameter of zone of inhibition (S. aureus 33490; Quantity n [μmol] 0.2) | Diameter of zone of inhibition (S. epidermidis 1068; Quantity n 0.2) | Diameter of zone of inhibition (S. epidermidis 1071; Quantity n 0.1) | Diameter of zone of inhibition (S. epidermidis 847; Quantity n [mol] 0.1)
28 mm: Diameter of zone of inhibition (S. epidermidis 125; Quantity n 0.2)
8 mm: Diameter of zone of inhibition (S. epidermidis 1071; Quantity n 0.02)
24 mm: Diameter of zone of inhibition (S. aureus 38418; Quantity n [mol] 0.1) | Diameter of zone of inhibition (S. epidermidis 563; Quantity n 0.2)
30 mm: Diameter of zone of inhibition (S. aureus 38418; Quantity n [mol] 0.2) | Diameter of zone of inhibition (S. aureus ATCC 6538; Quantity n 0.1)
14 mm: Diameter of zone of inhibition (S. aureus 33490; Quantity n [μmol] 0.1) | Diameter of zone of inhibition (S. aureus 36881; Quantity n 0.2) | Diameter of zone of inhibition (S. aureus 38418; Quantity n [mol] 0.02)
r: Diameter of zone of inhibition ([1]; Quantity n 0.02) | Diameter of zone of inhibition ([1]; Quantity n 0.1) | Diameter of zone of inhibition ([1]; Quantity n 0.2) | Diameter of zone of inhibition ([2]; Quantity n 0.02) | Diameter of zone of inhibition ([2]; Quantity n 0.1) | Diameter of zone of inhibition (E. faecalis 945; Quantity n 0.02) | Diameter of zone of inhibition (E. faecalis 945; Quantity n 0.1) | Diameter of zone of inhibition (E. faecalis 945; Quantity n 0.2) | Diameter of zone of inhibition (S. aureus 33490; Quantity n [μmol] 0.02) | Diameter of zone of inhibition (S. aureus 34289; Quantity n [mol] 0.02) | Diameter of zone of inhibition (S. aureus 34289; Quantity n [mol] 0.1) | Diameter of zone of inhibition (S. aureus 34289; Quantity n [mol] 0.2) | Diameter of zone of inhibition (S. aureus 36881; Quantity n 0.02) | Diameter of zone of inhibition (S. aureus 36881; Quantity n 0.1) | Diameter of zone of inhibition (S. aureus 39105; Quantity n 0.02) | Diameter of zone of inhibition (S. aureus 39105; Quantity n 0.1) | Diameter of zone of inhibition (S. aureus 520; Quantity n [mol] 0.02) | Diameter of zone of inhibition (S. aureus 520; Quantity n [mol] 0.1) | Diameter of zone of inhibition (S. aureus 520; Quantity n [mol] 0.2) | Diameter of zone of inhibition (S. aureus 526; Quantity n 0.02) | Diameter of zone of inhibition (S. aureus 526; Quantity n 0.1) | Diameter of zone of inhibition (S. aureus 526; Quantity n 0.2) | Diameter of zone of inhibition ([3]; Quantity n 0.02) | Diameter of zone of inhibition ([3]; Quantity n 0.1) | Diameter of zone of inhibition (S. epidermidis 1068; Quantity n 0.02) | Diameter of zone of inhibition (S. epidermidis 563; Quantity n 0.02) | Diameter of zone of inhibition (S. epidermidis 847; Quantity n [mol] 0.02)
10 mm: Diameter of zone of inhibition ([2]; Quantity n 0.2) | Diameter of zone of inhibition ([3]; Quantity n 0.2) | Diameter of zone of inhibition (S. epidermidis 125; Quantity n 0.02)
12 mm: Diameter of zone of inhibition (S. aureus 39105; Quantity n 0.2) | Diameter of zone of inhibition (S. epidermidis 1068; Quantity n 0.1)
3/3: Survival/tested mice n/n [4]
18 mm: Diameter of zone of inhibition (S. epidermidis 1071; Quantity n 0.2) | Diameter of zone of inhibition (S. epidermidis 563; Quantity n 0.1)
22 mm: Diameter of zone of inhibition (S. epidermidis 125; Quantity n 0.1)
